Assay: xn = mol fraction of the nth substance listed
Conditions: 101.3 kPa, Liquid

COCCOC [1,2-dimethoxyethane] + ClCCCl
mass density [kg/m3]
Conditions	308.15 K	313.15 K	318.15 K	323.15 K	328.15 K	333.15 K
x2 = 0.0251	–	852.25	846.59	840.89	835.13	829.32
x2 = 0.05	–	859.77	854.09	848.36	842.55	836.72
x2 = 0.0501	–	859.82	854.13	848.39	842.6	836.76
x2 = 0.075	–	867.42	861.7	855.93	850.11	844.24
x2 = 0.1	–	875.11	869.35	863.55	857.7	851.8
x2 = 0.1552	–	892.54	886.71	880.84	874.92	868.95
x2 = 0.2001	–	906.96	901.08	895.15	889.17	883.15
x2 = 0.2501	–	923.37	917.42	911.42	905.37	899.27
x2 = 0.3002	–	940.18	934.15	928.08	921.97	915.79
x2 = 0.35	–	957.24	951.14	945	938.81	932.56
x2 = 0.4001	–	974.8	968.62	962.41	956.14	949.82
x2 = 0.45	–	992.71	986.46	980.16	973.82	967.42
x2 = 0.5	1017.36	1011.06	1004.73	998.35	991.93	985.45
x2 = 0.5001	1017.45	1011.16	1004.83	998.45	992.02	985.53
x2 = 0.55	1036.29	1029.91	1023.49	1017.03	1010.51	1003.94
x2 = 0.6001	1055.67	1049.2	1042.69	1036.13	1029.53	1022.87
x2 = 0.65	1075.5	1068.94	1062.34	1055.68	1048.98	1042.24
x2 = 0.7	1095.88	1089.21	1082.51	1075.76	1068.97	1062.12
x2 = 0.75	1116.88	1110.11	1103.31	1096.45	1089.55	1082.61
x2 = 0.8	1138.31	1131.44	1124.52	1117.56	1110.55	1103.5
x2 = 0.85	1160.61	1153.62	1146.58	1139.51	1132.39	1125.22
x2 = 0.9	1183.44	1176.32	1169.16	1161.97	1154.73	1147.44
x2 = 0.925	1195	1187.82	1180.61	1173.35	1166.05	1158.7
x2 = 0.975	1218.9	1211.59	1204.25	1196.86	1189.43	1181.97
